Several values for one entry are separate records, joined by “and”; a condition that tells them apart may be missing. Equal values may be shown once.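 Interpolation was linear, between the two tested concentrations surrounding the appropriate level; five concentrations were tested over 48 hours in 96-well plates. GI50: concentration for 50% inhibition of growth.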 Activity calls are given as the source filed them. Rule as the data show it: active = GI50 up to about 1.1 µM and inactive = higher.
Experiments:
Assay in all cases: NCI anticancer screen, dose series, 48 h
LOX IMVI = tested on: LOX IMVI
HL-60 = tested on: HL-60
SNB-75 = tested on: SNB-75
SK-OV-3 = tested on: SK-OV-3
NCI-H23 = tested on: NCI-H23
TK-10 = tested on: TK-10
SK-MEL-28 = tested on: SK-MEL-28
KM12 = tested on: KM12
RPMI-8226 = tested on: RPMI-8226
SW-620 = tested on: SW-620
K562 = tested on: K562
UACC-257 = tested on: UACC-257
786-0 = tested on: 786-0
HCC 2998 = tested on: HCC 2998
HT-29 = tested on: HT-29
M14 = tested on: M14

Measured: GI50

CCOC(=O)CCC1(C(=O)OC)CCCC1=O (centres undefined)
inactive: LOX IMVI > 100 µM | HL-60 > 100 µM | SNB-75 > 100 µM | SK-OV-3 > 100 µM | NCI-H23 > 100 µM | TK-10 > 100 µM | SK-MEL-28 > 100 µM | KM12 > 100 µM | RPMI-8226 > 100 µM | SW-620 > 100 µM | K562 > 100 µM | UACC-257 > 100 µM | 786-0 > 100 µM | HCC 2998 > 100 µM | HT-29 > 100 µM

c1ccc(C2Nc3ccccc3C3OCCCC23)cc1 (centres undefined)
inactive: LOX IMVI 12.8 µM | HL-60 24.7 µM | NCI-H23 32.8 µM | KM12 25.1 µM | RPMI-8226 20.1 µM | SW-620 26 µM | K562 14.6 µM | UACC-257 30.9 µM | 786-0 27.6 µM | HCC 2998 35.8 µM | HT-29 > 10 µM

CCOC(=O)C1N(S(=O)(=O)c2ccc(C)cc2)CCC12C(c1ccc(OC)cc1)NC1CCCCC12 (centres undefined)
inactive: LOX IMVI > 100 µM | HL-60 > 100 µM | SNB-75 28.9 µM | SK-OV-3 > 100 µM | NCI-H23 > 100 µM | TK-10 > 100 µM | SK-MEL-28 > 100 µM | KM12 > 100 µM | RPMI-8226 > 100 µM | SW-620 > 100 µM | K562 > 100 µM | M14 > 100 µM | UACC-257 > 100 µM | 786-0 68.7 µM | HCC 2998 > 100 µM | HT-29 > 100 µM

O=C1c2ccccc2-c2c3c(cc4ccnc1c24)OCO3 [LIRIODENINE]
inactive: LOX IMVI 3.77 µM and 4.22 µM | HL-60 3 µM | SNB-75 4.18 µM and 6 µM | SK-OV-3 22.2 µM and 17.9 µM | NCI-H23 4.05 µM and 5.4 µM | SK-MEL-28 5.58 µM and 5.27 µM | KM12 6.44 µM and 6.5 µM | RPMI-8226 3.2 µM and 3.48 µM | SW-620 4.92 µM and 3.82 µM | K562 3.42 µM and 4.29 µM | M14 7.53 µM and 6.71 µM | 786-0 4.25 µM and 7.69 µM | HCC 2998 4.51 µM | HT-29 4.95 µM and 4.06 µM

Cc1cn(Cc2ccccc2CCO)c(=S)[nH]c1=O
inactive: LOX IMVI > 100 µM | HL-60 > 100 µM | SNB-75 > 100 µM | SK-OV-3 > 100 µM | NCI-H23 > 100 µM | TK-10 > 100 µM | SK-MEL-28 > 100 µM | KM12 > 100 µM | RPMI-8226 > 100 µM | SW-620 > 100 µM | K562 > 100 µM | M14 > 100 µM | UACC-257 > 100 µM | 786-0 > 100 µM | HT-29 > 100 µM

Sc1nnc(C(c2ccccc2)c2ccccc2)[nH]1
inactive: LOX IMVI > 100 µM | HL-60 > 100 µM | SK-OV-3 > 100 µM | NCI-H23 > 100 µM | TK-10 > 100 µM | SK-MEL-28 > 100 µM | KM12 > 100 µM | SW-620 > 100 µM | K562 > 100 µM | UACC-257 > 100 µM | 786-0 > 100 µM | HCC 2998 > 100 µM | HT-29 > 100 µM

Cc1cc(C)nc(NS(=O)(=O)c2ccc(NC(=O)c3cccc4c(Nc5ccc(S(=O)(=O)Nc6nc(C)cc(C)n6)cc5)c5ccc(Cl)cc5nc34)cc2)n1
inactive: LOX IMVI 29.2 µM | SNB-75 17.1 µM | SK-OV-3 26.7 µM | NCI-H23 39.4 µM | TK-10 30.8 µM | SK-MEL-28 29.6 µM | KM12 33.1 µM | RPMI-8226 28.2 µM | SW-620 54.1 µM | K562 26.1 µM | M14 37.4 µM | UACC-257 20.8 µM | 786-0 28.4 µM | HCC 2998 36.6 µM | HT-29 40.6 µM

Source: ChEMBL document CHEMBL1201862, “PubChem BioAssay data set” (2004)
